Experimental data: patent publication US9637483B2, “Heterocyclic compound” (TAKEDA PHARMACEUTICAL COMPANY LIMITED, priority 2013, dated 2017)

What was measured:
Type in all cases: biochemical
JAK1 = target: T1, JAK1 (Homo sapiens, UniProt P23458); assay: JAK1 enzyme inhibition test (LANCE method); settings: 1 μM test compound; read-out: JAK1 enzyme inhibitory activity (%, 1 μM)
T1 construct: purchased Invitrogen
In short: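 Inhibition expressed against no-enzyme wells (100% inhibition), from time-resolved fluorescence at 665 nm after Eu-anti-phosphotyrosine antibody/EDTA detection. Kinase reaction ran 1 h at room temperature, pH 7.5 HEPES buffer, ULight-JAK1 substrate and ATP diluted to 300 nM and 150 μM before addition.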

JAK2 = target: T2, JAK2 (Homo sapiens, UniProt O60674); assay: JAK2 enzyme inhibition test (LANCE method); settings: 1 μM test compound; read-out: JAK2 enzyme inhibitory activity (%, 1 μM)
T2 construct: purchased Invitrogen
In short: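 TR-FRET (LANCE) read-out, ex 340/em 665 nm with 100 μs delay, after 1 hr room-temperature detection with europium anti-phosphotyrosine antibody and 20 mM EDTA. The preceding 1 hr kinase reaction combined JAK2, ULight-JAK1 substrate and ATP, added as 6 ng/mL, 300 nM and 45 μM solutions; enzyme-free wells defined 100% inhibition.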

JAK3 = target: T3, JAK3 (Homo sapiens, UniProt P52333); assay: JAK3 enzyme inhibition test (LANCE method); settings: 1 μM test compound; read-out: JAK3 enzyme inhibitory activity (%, 1 μM)
T3 construct: purchased Invitrogen
T3 sequence (P52333 1-1124): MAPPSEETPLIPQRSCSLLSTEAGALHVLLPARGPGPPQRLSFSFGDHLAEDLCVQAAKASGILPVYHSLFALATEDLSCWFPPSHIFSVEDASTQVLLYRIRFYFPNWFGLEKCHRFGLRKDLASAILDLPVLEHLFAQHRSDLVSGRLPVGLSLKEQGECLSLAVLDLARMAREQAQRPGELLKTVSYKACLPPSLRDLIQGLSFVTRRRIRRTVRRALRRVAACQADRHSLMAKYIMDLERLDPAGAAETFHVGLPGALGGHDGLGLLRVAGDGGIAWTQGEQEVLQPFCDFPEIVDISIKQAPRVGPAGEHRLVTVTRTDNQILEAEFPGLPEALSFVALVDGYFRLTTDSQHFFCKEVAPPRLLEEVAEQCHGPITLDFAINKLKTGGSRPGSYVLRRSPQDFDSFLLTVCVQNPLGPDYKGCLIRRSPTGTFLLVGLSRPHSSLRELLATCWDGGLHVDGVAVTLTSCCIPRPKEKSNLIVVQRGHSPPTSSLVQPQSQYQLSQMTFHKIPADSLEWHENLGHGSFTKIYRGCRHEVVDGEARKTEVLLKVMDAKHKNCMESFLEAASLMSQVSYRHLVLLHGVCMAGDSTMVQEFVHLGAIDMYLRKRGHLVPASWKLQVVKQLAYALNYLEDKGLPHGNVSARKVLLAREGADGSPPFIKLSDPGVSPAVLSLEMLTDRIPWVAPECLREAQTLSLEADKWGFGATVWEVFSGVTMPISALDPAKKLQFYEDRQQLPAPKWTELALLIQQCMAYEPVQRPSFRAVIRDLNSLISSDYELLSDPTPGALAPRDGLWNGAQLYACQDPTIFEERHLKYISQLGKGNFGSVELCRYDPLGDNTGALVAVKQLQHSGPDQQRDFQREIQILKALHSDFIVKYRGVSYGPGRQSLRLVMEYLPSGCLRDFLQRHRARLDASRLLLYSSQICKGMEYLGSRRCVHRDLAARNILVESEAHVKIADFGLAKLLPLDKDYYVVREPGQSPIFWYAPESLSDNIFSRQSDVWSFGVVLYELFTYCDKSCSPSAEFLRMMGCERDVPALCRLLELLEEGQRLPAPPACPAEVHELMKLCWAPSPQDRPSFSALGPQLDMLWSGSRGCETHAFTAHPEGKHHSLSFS
In short: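 TR-FRET (LANCE) read: 1 h room-temperature reaction, EDTA quench, Eu-anti-phosphotyrosine antibody, emission 665 nm after 340 nm excitation. Added solutions held 12 ng/mL JAK3, 300 nM ULight-JAK1 substrate and 15 μM ATP (pH 7.5 HEPES). Activity expressed against no-enzyme wells defined as full inhibition.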

TYK2 = target: T4, TYK2 (Homo sapiens, UniProt P29597); assay: TYK2 enzyme inhibition test (LANCE method); settings: 1 μM test compound; read-out: TYK2 enzyme inhibitory activity (%, 1 μM)
T4 construct: purchased Invitrogen
In short: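 TR-FRET (LANCE) readout: after 1 h room-temperature kinase reaction, EDTA plus 4 nM Eu-labelled anti-phosphotyrosine antibody added, signal at 665 nm (340 nm excitation). Reaction combined TYK2, ULight-JAK1 substrate and ATP, prepared at 375 ng/mL, 300 nM and 30 μM before addition, in pH 7.5 HEPES/MgCl2 buffer; enzyme-free wells define full inhibition.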

T4 sequence (P29597 whole entry): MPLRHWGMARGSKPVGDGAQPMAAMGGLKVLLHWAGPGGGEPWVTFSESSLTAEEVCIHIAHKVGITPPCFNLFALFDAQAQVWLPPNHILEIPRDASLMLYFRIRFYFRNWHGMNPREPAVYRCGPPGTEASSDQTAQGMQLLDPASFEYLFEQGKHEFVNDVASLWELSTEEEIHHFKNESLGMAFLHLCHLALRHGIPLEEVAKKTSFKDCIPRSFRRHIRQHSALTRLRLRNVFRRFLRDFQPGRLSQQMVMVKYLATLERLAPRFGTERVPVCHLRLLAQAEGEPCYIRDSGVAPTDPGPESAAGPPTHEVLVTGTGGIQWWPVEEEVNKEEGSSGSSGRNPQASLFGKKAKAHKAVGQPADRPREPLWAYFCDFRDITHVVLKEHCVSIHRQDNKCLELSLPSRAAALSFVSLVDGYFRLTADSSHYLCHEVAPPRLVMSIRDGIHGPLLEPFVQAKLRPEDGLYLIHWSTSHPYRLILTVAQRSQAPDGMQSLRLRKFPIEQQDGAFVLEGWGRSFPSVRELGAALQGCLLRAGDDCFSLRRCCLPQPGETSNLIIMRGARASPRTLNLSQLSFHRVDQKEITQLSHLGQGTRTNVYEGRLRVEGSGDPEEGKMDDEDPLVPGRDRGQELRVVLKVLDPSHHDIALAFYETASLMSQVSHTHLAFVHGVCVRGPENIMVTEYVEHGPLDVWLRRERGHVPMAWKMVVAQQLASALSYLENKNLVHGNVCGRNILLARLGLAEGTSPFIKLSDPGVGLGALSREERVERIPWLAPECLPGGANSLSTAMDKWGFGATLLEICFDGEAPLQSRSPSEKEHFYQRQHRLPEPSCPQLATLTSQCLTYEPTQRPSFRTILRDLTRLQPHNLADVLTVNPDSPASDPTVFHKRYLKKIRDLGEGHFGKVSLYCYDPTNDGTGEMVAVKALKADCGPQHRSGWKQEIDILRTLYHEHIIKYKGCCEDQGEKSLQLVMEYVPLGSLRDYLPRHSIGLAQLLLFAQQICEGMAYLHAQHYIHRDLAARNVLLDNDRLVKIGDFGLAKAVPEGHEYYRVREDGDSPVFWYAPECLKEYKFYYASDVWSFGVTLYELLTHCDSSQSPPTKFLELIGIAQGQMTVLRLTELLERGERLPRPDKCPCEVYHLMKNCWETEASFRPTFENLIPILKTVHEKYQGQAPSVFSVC
T2 sequence (O60674 whole entry): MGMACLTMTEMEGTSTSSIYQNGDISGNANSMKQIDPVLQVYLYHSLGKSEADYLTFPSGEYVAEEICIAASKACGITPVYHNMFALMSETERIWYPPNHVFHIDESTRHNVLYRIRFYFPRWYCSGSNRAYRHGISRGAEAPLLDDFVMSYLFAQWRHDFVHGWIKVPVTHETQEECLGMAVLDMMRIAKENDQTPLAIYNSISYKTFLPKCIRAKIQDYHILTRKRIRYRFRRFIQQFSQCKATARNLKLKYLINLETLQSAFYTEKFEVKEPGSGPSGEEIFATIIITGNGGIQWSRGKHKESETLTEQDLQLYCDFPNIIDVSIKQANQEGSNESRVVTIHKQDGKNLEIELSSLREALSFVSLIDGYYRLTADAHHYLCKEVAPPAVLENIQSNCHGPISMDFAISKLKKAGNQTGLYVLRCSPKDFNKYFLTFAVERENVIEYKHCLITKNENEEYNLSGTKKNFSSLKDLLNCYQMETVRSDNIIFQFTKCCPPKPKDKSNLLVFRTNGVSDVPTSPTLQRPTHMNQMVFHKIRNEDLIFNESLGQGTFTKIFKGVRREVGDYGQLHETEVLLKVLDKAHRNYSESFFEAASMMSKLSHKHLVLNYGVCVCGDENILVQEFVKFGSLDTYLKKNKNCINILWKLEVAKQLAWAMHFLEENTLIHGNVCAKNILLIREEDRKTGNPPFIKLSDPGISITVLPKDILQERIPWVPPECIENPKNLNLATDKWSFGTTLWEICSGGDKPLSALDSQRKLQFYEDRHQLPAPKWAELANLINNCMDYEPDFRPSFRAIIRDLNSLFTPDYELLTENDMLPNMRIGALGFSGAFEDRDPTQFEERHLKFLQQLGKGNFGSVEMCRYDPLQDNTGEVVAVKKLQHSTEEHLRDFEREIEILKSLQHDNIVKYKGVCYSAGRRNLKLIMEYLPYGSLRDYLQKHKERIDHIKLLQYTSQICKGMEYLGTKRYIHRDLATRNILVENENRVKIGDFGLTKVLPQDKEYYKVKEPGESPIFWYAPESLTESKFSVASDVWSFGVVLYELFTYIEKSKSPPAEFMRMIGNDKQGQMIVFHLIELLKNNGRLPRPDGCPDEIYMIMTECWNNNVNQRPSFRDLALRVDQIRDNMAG
T1 sequence (P23458 whole entry): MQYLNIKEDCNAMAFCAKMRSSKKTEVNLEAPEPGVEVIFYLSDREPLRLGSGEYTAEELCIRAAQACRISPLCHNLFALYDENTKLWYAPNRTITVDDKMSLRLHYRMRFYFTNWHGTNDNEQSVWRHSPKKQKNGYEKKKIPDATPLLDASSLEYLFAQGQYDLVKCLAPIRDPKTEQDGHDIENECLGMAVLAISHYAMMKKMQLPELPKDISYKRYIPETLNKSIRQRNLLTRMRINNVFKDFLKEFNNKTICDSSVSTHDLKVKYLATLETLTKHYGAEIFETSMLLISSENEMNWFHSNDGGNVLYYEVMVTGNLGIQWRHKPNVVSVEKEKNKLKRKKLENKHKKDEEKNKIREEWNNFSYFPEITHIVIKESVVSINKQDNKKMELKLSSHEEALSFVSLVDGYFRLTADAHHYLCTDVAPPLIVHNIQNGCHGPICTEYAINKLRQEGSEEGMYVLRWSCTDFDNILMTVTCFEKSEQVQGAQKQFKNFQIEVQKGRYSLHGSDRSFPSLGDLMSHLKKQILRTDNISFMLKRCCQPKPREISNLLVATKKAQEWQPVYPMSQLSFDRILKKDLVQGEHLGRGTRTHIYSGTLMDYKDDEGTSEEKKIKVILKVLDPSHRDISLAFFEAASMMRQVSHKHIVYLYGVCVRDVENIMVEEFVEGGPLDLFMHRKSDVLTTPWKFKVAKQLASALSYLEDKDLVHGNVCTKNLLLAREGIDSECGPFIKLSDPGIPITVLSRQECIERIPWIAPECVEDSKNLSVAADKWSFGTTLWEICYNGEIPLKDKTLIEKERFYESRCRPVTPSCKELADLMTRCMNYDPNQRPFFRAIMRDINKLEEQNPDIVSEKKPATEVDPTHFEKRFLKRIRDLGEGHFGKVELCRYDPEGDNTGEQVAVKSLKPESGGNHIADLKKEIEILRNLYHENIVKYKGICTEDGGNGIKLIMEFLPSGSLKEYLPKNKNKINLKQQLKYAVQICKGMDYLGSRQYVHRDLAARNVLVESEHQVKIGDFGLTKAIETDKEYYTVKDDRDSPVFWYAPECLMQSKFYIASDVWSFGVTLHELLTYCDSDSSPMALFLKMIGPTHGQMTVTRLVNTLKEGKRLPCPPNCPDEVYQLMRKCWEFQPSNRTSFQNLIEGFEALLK

| Compound | inhibition at 1 µM (JAK1) [%] | inhibition at 1 µM (JAK2) [%] | inhibition at 1 µM (JAK3) [%] | inhibition at 1 µM (TYK2) [%] |
| --- | --- | --- | --- | --- |
| CC(C)[C@H](C)n1cc(-c2cc(C(F)(F)F)n(C)n2)c2[nH]nc(N)c2c1=O [Example 42, 3-amino-5-((2S)-3-methylbutan-2-yl)-7-(1-methyl-5-(trifluoromethyl)-1H-pyrazol-3-yl)-1,5-dihydro-4H-pyrazolo[4,3-c]pyridin-4-one] | 96 | 96 | 99 | 98 |
| CC(C)[C@H](C)n1cc(-c2cc(C3CC3)n(C)n2)c2[nH]nc(N)c2c1=O [Example 43, 3-amino-7-(5-cyclopropyl-1-methyl-1H-pyrazol-3-yl)-5-((2S)-3-methylbutan-2-yl)-1,5-dihydro-4H-pyrazolo[4,3-c]pyridin-4-one] | 97 | 97 | 99 | 100 |
| CC(C)[C@H](C)n1cc(-c2cc(CN3CCCC3)n(C)n2)c2[nH]nc(N)c2c1=O [Example 44, 3-amino-5-((2S)-3-methylbutan-2-yl)-7-(1-methyl-5-(pyrrolidin-1-ylmethyl)-1H-pyrazol-3-yl)-1,5-dihydro-4H-pyrazolo[4,3-c]pyridin-4-one] | 90 | 96 | 99 | 101 |
| CC(C)[C@H](C)n1cc(-c2cc(C(=O)N3CCS(=O)(=O)CC3)n(C)n2)c2[nH]nc(N)c2c1=O [Example 45, 3-amino-7-(5-((1,1-dioxidothiomorpholin-4-yl)carbonyl)-1-methyl-1H-pyrazol-3-yl)-5-((2S)-3-methylbutan-2-yl)-1,5-dihydro-4H-pyrazolo[4,3-c]pyridin-4-one] | 98 | 99 | 99 | 100 |
| COCCN(C)C(=O)c1cc(-c2cn([C@@H](C)C(C)C)c(=O)c3c(N)n[nH]c23)nn1C [Example 46, 3-(3-amino-5-((2S)-3-methylbutan-2-yl)-4-oxo-4,5-dihydro-1H-pyrazolo[4,3-c]pyridin-7-yl)-N-(2-methoxyethyl)-N,1-dimethyl-1H-pyrazole-5-carboxamide] | 95 | 98 | 99 | 99 |
| CC(C)[C@H](C)n1cc(-c2cc(CN3CCS(=O)(=O)CC3)n(C)n2)c2[nH]nc(N)c2c1=O [Example 47, 3-amino-7-(5-((1,1-dioxidothiomorpholin-4-yl)methyl)-1-methyl-1H-pyrazol-3-yl)-5-((2S)-3-methylbutan-2-yl)-1,5-dihydro-4H-pyrazolo[4,3-c]pyridin-4-one] | 93 | 98 | 100 | 99 |
| CC(C)[C@H](C)n1cc(-c2cc(N3CCCCC3=O)n(C)n2)c2[nH]nc(N)c2c1=O [Example 48, 3-amino-5-((2S)-3-methylbutan-2-yl)-7-(1-methyl-5-(2-oxopiperidin-1-yl)-1H-pyrazol-3-yl)-1,5-dihydro-4H-pyrazolo[4,3-c]pyridin-4-one] | 94 | 97 | 100 | 99 |
| CC(C)[C@H](C)n1cc(-c2cc(N3CCOCC3=O)n(C)n2)c2[nH]nc(N)c2c1=O [Example 49, 3-amino-5-((2S)-3-methylbutan-2-yl)-7-(1-methyl-5-(3-oxomorpholin-4-yl)-1H-pyrazol-3-yl)-1,5-dihydro-4H-pyrazolo[4,3-c]pyridin-4-one] | 96 | 97 | 100 | 99 |
| CC(C)[C@H](C)n1cc(-c2cc(C(=O)N(C)C3CCCC3)n(C)n2)c2[nH]nc(N)c2c1=O [Example 50, 3-(3-amino-5-((2S)-3-methylbutan-2-yl)-4-oxo-4,5-dihydro-1H-pyrazolo[4,3-c]pyridin-7-yl)-N-cyclopentyl-N,1-dimethyl-1H-pyrazole-5-carboxamide] | 96 | 99 | 100 | 99 |
| CC(=O)NCC(C)(C)c1cc(-c2cn([C@@H](C)C(C)C)c(=O)c3c(N)n[nH]c23)nn1C [Example 51, N-(2-(3-(3-amino-5-((2S)-3-methylbutan-2-yl)-4-oxo-4,5-dihydro-1H-pyrazolo[4,3-c]pyridin-7-yl)-1-methyl-1H-pyrazol-5-yl)-2-methylpropyl)acetamide] | 97 | 97 | 97 | 99 |
| CC(C)[C@H](C)n1cc(-c2cc(CN3CCCC3=O)n(C)n2)c2[nH]nc(N)c2c1=O [Example 52, 3-amino-5-((2S)-3-methylbutan-2-yl)-7-(1-methyl-5-((2-oxopyrrolidin-1-yl)methyl)-1H-pyrazol-3-yl)-1,5-dihydro-4H-pyrazolo[4,3-c]pyridin-4-one] | 96 | 99 | 99 | 100 |
| CC(C)[C@H](C)n1cc(-c2cc(C(=O)N(C)C3CCOCC3)n(C)n2)c2[nH]nc(N)c2c1=O [Example 53, 3-(3-amino-5-((2S)-3-methylbutan-2-yl)-4-oxo-4,5-dihydro-1H-pyrazolo[4,3-c]pyridin-7-yl)-N,1-dimethyl-N-(tetrahydro-2H-pyran-4-yl)-1H-pyrazole-5-carboxamide] | 95 | 96 | 99 | 98 |
| CC(C)[C@H](C)n1cc(-c2cc(N3CCOC3=O)n(C)n2)c2[nH]nc(N)c2c1=O [Example 54, 3-amino-5-((2S)-3-methylbutan-2-yl)-7-(1-methyl-5-(2-oxo-1,3-oxazolidin-3-yl)-1H-pyrazol-3-yl)-1,5-dihydro-4H-pyrazolo[4,3-c]pyridin-4-one] | 98 | 98 | 99 | 98 |
| CC(C)[C@H](C)n1cc(-c2cc(N3CCCC3=O)n(C)n2)c2[nH]nc(N)c2c1=O [Example 55, 3-amino-5-((2S)-3-methylbutan-2-yl)-7-(1-methyl-5-(2-oxopyrrolidin-1-yl)-1H-pyrazol-3-yl)-1,5-dihydro-4H-pyrazolo[4,3-c]pyridin-4-one] | 98 | 98 | 99 | 99 |
| CC(C)[C@H](C)n1cc(-c2cc(C(C)(C)C(=O)N(C)C)n(C)n2)c2[nH]nc(N)c2c1=O [Example 56, 2-(3-(3-amino-5-((2S)-3-methylbutan-2-yl)-4-oxo-4,5-dihydro-1H-pyrazolo[4,3-c]pyridin-7-yl)-1-methyl-1H-pyrazol-5-yl)-N,N,2-trimethylpropanamide] | 70 | 94 | 94 | 98 |
